The record followed here is patent US8003648B2, “Heterocyclic GPR40 modulators” (Amgen Inc., priority 2006, dated 2011).

For this assay, the target named is T1, human GPR40 (Homo sapiens, UniProt O14842).
T1 construct: host or cells: CHO cells
The assay can be described thus: Cell-based aequorin assay using human GPR40. Particulars: activation of human GPR40; CHO cells stably transfected with GPR40 and Aequorin; 0.01% HSA; aequorin luminescence. On the procedure:
Cell-based aequorin assays were employed to characterize the modulatory activity of compounds on the GPR40 signaling pathway. In an exemplary assay, CHO cells were stably transfected with both GPR40 and Aequorin (Euroscreen). Cells were detached from the tissue culture dish with 2 mL of trypsin (0.25% (w/v)). Trypsinization was halted with 28 mL of Hanks Buffered Salt Solution containing 20 mM Hepes (H/HBSS) and 0.01% fatty acid-free human serum albumin (HSA). Coelantrazine is added to 1 ug/mL, and the cells were incubated for 2 hours at room temperature. Compounds were dissolved in DMSO for preparation of 10 mM stock solutions. Compounds were diluted in H/HBSS containing 0.01% HSA. Serial dilutions of the test compounds were prepared to determine dose response.
Aequorin luminescence measurements were made using an EG&G Berthold 96-well luminometer, and the response was measured over a 20 second interval after cells and compounds were mixed. The maximum relative light units was plotted to determine dose response. The EC50 (effective concentration to reach 50% maximal response) was determined from the dose response plot.
Table 1 presents representative data (EC50 values) obtained for exemplary compounds of the invention for the activation of human GPR40. […]

T1 sequence (O14842 whole entry): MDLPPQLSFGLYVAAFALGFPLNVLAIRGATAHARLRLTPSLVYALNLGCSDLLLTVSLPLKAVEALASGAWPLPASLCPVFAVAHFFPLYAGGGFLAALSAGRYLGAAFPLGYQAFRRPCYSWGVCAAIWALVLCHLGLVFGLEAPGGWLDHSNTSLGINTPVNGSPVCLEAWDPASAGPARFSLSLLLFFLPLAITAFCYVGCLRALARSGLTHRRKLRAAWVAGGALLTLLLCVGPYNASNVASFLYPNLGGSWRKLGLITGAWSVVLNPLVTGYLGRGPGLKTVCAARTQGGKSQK

The term EC50 denotes the concentration that produces a half-maximal response. Compound `Cc1nc(-c2ccc(C(C)(C)C)cc2)sc1COc1ccc([C@H](CC(=O)O)c2ccon2)cc1` [Example 76] registered an EC50 of 10 to 100 nM. `CCCCc1ccc(-c2nc(C)c(COc3ccc([C@H](CC(=O)O)c4ccon4)cc3)s2)cc1` [Example 77] came in with an EC50 of 10 to 100 nM.

As to `Cc1nc(-c2ccc(CC(C)C)cc2)sc1COc1ccc([C@H](CC(=O)O)c2ccon2)cc1` [Example 78], the 50% effective concentration (EC50) fell in the range of 10 to 100 nM.

`CCCCOc1ccc(-c2nc(C)c(COc3ccc([C@H](CC(=O)O)c4ccon4)cc3)s2)cc1Cl` [Example 79] gave an EC50 of 10 to 100 nM. The value for `CCCOc1c(C)cc(-c2nc(C)c(COc3ccc([C@H](CC(=O)O)c4ccon4)cc3)s2)cc1C` [Example 80] was 10 to 100 nM; that for `Cc1nc(-c2ccc(OC(C)C)c(Cl)c2)sc1COc1ccc([C@H](CC(=O)O)c2ccon2)cc1` [Example 81] was 10 to 100 nM. `CC12CCC(c3nc(COc4ccc([C@H](CC(=O)O)c5ccon5)cc4)cnc31)C2(C)C` (some centres unmarked) [Example 82] yielded an EC50 of 1000 to 10000 nM. For `CC12CCC(c3ncc(COc4ccc([C@H](CC(=O)O)c5ccon5)cc4)nc31)C2(C)C` (some centres unmarked) [Example 83], the EC50 fell in the range of 1000 to 10000 nM.
